Test results from paper PMC6933707, “Palmitoylethanolamide counteracts substance P-induced mast cell activation in vitro by stimulating diacylglycerol lipase activity” (Journal of Neuroinflammation, 2019).

Legend:
MGL = MGL enzyme activity assay (COS-7 cytosolic fractions); type: biochemical; conditions: up to 25 μM
Procedure: The 10,000×g cytosolic fractions obtained from COS-7 cells (100 μg of protein) were incubated with 2-arachidonoyl-[^3H]-glycerol (40 Ci/mmol, St. Louis, MO, USA) diluted with non-radiolabeled 2-AG (20 μM) in the presence of vehicle or increasing concentrations of PEA (0.1-25 μM), in Tris-HCl 50 mM pH 7.4 at 37 °C for 20 min [42]. After the incubation, the amounts of [^3H]-glycerol were measured in the aqueous phase [after extraction of the incubation mixture with 2 volumes of CHCl3/CH3OH (1:1, v/v)] by using Liquid Scintillation Analyzer (TRI-carb 2100TR).

RBL-2H3 cells [1] = experiment: Quantitative real-time PCR of PEA/2-AG receptors and metabolic enzymes; type: cell-based, rat; conditions: cells stimulated 15 min with SP 10 μM or PEA 10 μM or both, vs unstimulated
Text: The mRNA expression of PEA target genes (Cnr1, Cnr2, Trpv1, Ppara, and Gpr55), as well as PEA and 2-AG biosynthetic (N-acyl phosphatidylethanolamine-specific phospholipase D, Napepld, Dagla and Daglb) and catabolic enzyme genes (fatty acid amide hydrolase, Faah; N-acylethanolamine-hydrolyzing acid amidase, Naaa; and monoacylglycerol lipase, Mgl), was studied by comparison of transcriptional expression in unstimulated RBL-2H3 cells (plated on 100 mm diameter Petri dishes) vs. the expression of these targets and enzymes in RBL-2H3 cells treated with PEA (10 μM), or stimulated with SP (10 μM) in the presence and absence of PEA (10 μM), for 15 min at 37 °C in 5% CO2 atmosphere. Total RNA was purified, quantified and reverse transcribed as previously reported. For each target, all mRNA sequences were aligned and common primers were designed (Table 1). Quantitative real-time PCR was performed by an iCycler-iQ5 in a 20 μl reaction mixture using 20 ng of cDNA. Assays were performed in quadruplicate (maximum ΔCt of replicate samples < 0.5). Optimized primers for SYBR-green analysis and optimum annealing temperatures were designed by the Allele-Id software version 7.0 (Biosoft International) and were synthesized (HPLC-purification grade) by MWG-Biotech. […] Results were expressed as fold expression compared with a reference condition (2^^−∆∆ct formula).

RBL-2H3 cells [2] = experiment: Toluidine blue staining, percentage of degranulation; type: cell-based, rat
Procedure: SP-stimulated RBL-2H3 cells [plated on poly-L-lysine (33 μg/ml) coated slides (Deckglaser, 21 × 26 mm) into 6-well culture dishes at a cell density of 9 × 10^5 cells per well] were treated and incubated as described above for histamine release assay. After 15 min, the cells were fixed with paraformaldehyde at 4% for 20 min and incubated for 3 min with toluidine blue at 0.01% in 3% acetic acid. Subsequently, a 5 min wash in distilled water and dehydration in increasing alcohols (90%, 100%) were performed. Cells were then clarified by treatment with Xylol for 5 min and finally dried slides were mounted with the DPX histogram upright. The cells were observed using a Leica DMI6000 digital microscope, acquired using the Leica DFC 340FX digital camera connected to the microscope and analyzed using the LAS AF 2.2.0 software. Degranulated RBL-2H3 cells were counted and the percentage of degranulation (based on the number of colorable cells) was calculated.

Structure (SMILES): CCCCCCCCCCCCCCCC(=O)NCCO [PEA, Palmitoylethanolamide]
- inhibitory effect on MGL activity (MGL): no inhibitory effect
- maximal % inhibition of MGL activity (MGL): < 5%
- mRNA expression of Cnr2, Napepld, Naaa, Daglb, Faah and Mgl (RBL-2H3 cells [1]): no statistically significant change
- number of degranulated cells (RBL-2H3 cells [2]; SP (10 μM)-stimulated cells, compound 0.1 μM, 15 min, vs SP + vehicle): comparable
- number of degranulated cells (RBL-2H3 cells [2]; SP (10 μM)-stimulated cells, compound 10 μM, 15 min, vs SP + vehicle): reduced the number of SP-degranulated RBL-2H3 cells
- number of degranulated cells (RBL-2H3 cells [2]; SP-stimulated cells co-treated with PEA 0.1 μM and 2-AG 0.1 μM, 15 min): able to reduce
- number of degranulated cells (RBL-2H3 cells [2]; SP-stimulated cells co-treated with PEA 10 μM and AM630 0.1 μM, vs SP + vehicle or SP + AM630): comparable
- number of degranulated cells (RBL-2H3 cells [2]; substance alone 10 μM, 15 min, vs vehicle): no effect
